{"source": "patent US20220047551A1", "about": "“PHARMACEUTICAL AGENT FOR TREATING AMYOTROPHIC LATERAL SCLEROSIS OR SUPPRESSING DISEASE PROGRESS THEREOF” (Mitsubishi Tanabe Pharma Corporation, priority 2011, published 2022)", "test_system": "patients with amyotrophic lateral sclerosis", "assay": "Placebo-controlled clinical test in amyotrophic lateral sclerosis patients, measured in terms of ALSFRS-R", "format": "in vivo, human", "protocol": "199 patients with amyotrophic lateral sclerosis who complied with the following selection standards were divided into an actual drug administration group consisting of 100 patients and a placebo administration group of 99 patients:\nWith regard to the actual drug administration group, two ampules of “Radicut (registered trademark), Injection 30 mg” (containing 30 mg of 3-methyl-1-phenyl-2-pyrazolin-5-one; manufactured and distributed by Mitsubishi Tanabe Pharma Corporation) were diluted with a suitable amount of normal saline before the use, and the thus prepared solution was intravenously administered to the patients by drops over 60 minutes once a day. On the other hand, with regard to the placebo administration group, only normal saline was administered to the patients in the same manner as for the actual drug administration group.\nThe administration period was divided into first to sixth courses. The first course consisted of a continuous 14-day administration period and the subsequent drug holiday period for 14 days in which drug administration was not carried out. In the second to sixth courses, 1 set consisting of an administration period for a total of 10 out of 14 days and the subsequent 14-day drug holiday period was repeated 5 times.\nBefore initiation of the drug administration in the first course, and upon termination of the drug holiday periods in the first, second, third, fourth, fifth and sixth courses, the 199 patients were measured in terms of ALSFRS-R. Among the 199 patients, some patients were dropped out from the test during a period after initiation of the administration in the fourth course and before termination of the drug holiday period in the sixth course. In the case of these drop-out patients, the ALSFRS-R score measured immediately before dropping out from the test was considered to be the score upon termination of the drug holiday period in the sixth course, and it was used in the analysis.\nA difference between the ALSFRS-R scores between before initiation of the administration in the first course and upon termination of the drug holiday period in the sixth course is shown below.\nSubsequently, the 199 patients were divided into the following (1) to (7):\n(1) patients who were determined to be “Definite ALS” or “Probable ALS” according to the revised El Escorial (Airlie House) diagnostic criteria; (2) patient who were determined to be “Definite ALS” according to the revised El Escorial (Airlie House) diagnostic criteria; (3) patients who scored two or more points from all items constituting the ALSFRS-R; (4) patients whose % FVC was 80% or more; (5) patients who scored two or more points from all items constituting the ALSFRS-R and whose % FVC was 80% or more; (6) patients who were determined to be “Definite ALS” or “Probable ALS” according to the revised El Escorial (Airlie House) diagnostic criteria, scored two or more points from all items constituting the ALSFRS-R, and whose % FVC was 80% or more; and (7) patients who were determined to be “Definite ALS” according to the revised El Escorial (Airlie House) diagnostic criteria, scored two or more points from all items constituting the ALSFRS-R, and whose % FVC was 80% or more. With regard to the thus specified patients (1) to (7), differences in the ALSFRS-R scores between before the administration in the first course and upon termination of the drug holiday period in the sixth course are shown below."}
{"smiles": "CC1=NN(c2ccccc2)C(=O)C1", "note": "[Actual drug, 3-methyl-1-phenyl-2-pyrazolin-5-one]", "values": [{"measurement": "Between-group difference in ALSFRS-R score change (actual drug vs placebo)", "setting": "(1) Definite ALS or Probable ALS", "value": 1.2, "unit": "points"}, {"measurement": "Before-and-after difference in ALSFRS-R score", "setting": "(1) Definite ALS or Probable ALS, before first course vs end of sixth course", "value": "−5.7", "unit": "points"}, {"measurement": "Between-group difference in ALSFRS-R score change (actual drug vs placebo)", "setting": "(2) Definite ALS", "value": 2.0, "unit": "points"}, {"measurement": "Before-and-after difference in ALSFRS-R score", "setting": "(2) Definite ALS, before first course vs end of sixth course", "value": "−6.7", "unit": "points"}, {"measurement": "Between-group difference in ALSFRS-R score change (actual drug vs placebo)", "setting": "(3) two or more points from all items constituting ALSFRS-R", "value": 1.6, "unit": "points"}, {"measurement": "Before-and-after difference in ALSFRS-R score", "setting": "(3) two or more points from all items constituting ALSFRS-R, before first course vs end of sixth course", "value": "−4.7", "unit": "points"}, {"measurement": "Between-group difference in ALSFRS-R score change (actual drug vs placebo)", "setting": "(4) 80% or more % FVC", "value": 1.3, "unit": "points"}, {"measurement": "Before-and-after difference in ALSFRS-R score", "setting": "(4) 80% or more % FVC, before first course vs end of sixth course", "value": "−3.9", "unit": "points"}, {"measurement": "Between-group difference in ALSFRS-R score change (actual drug vs placebo)", "setting": "(5) two or more points from all ALSFRS-R items and 80% or more % FVC", "value": 2.5, "unit": "points"}, {"measurement": "Before-and-after difference in ALSFRS-R score", "setting": "(5) two or more points from all ALSFRS-R items and 80% or more % FVC, before first course vs end of sixth course", "value": "−3.4", "unit": "points"}, {"measurement": "Between-group difference in ALSFRS-R score change (actual drug vs placebo)", "setting": "(6) Definite ALS or Probable ALS, two or more points from all ALSFRS-R items, and 80% or more % FVC", "value": 3.7, "unit": "points"}, {"measurement": "Before-and-after difference in ALSFRS-R score", "setting": "(6) Definite ALS or Probable ALS, two or more points from all ALSFRS-R items, and 80% or more % FVC, before first course vs end of sixth course", "value": "−3.8", "unit": "points"}, {"measurement": "Between-group difference in ALSFRS-R score change (actual drug vs placebo)", "setting": "(7) Definite ALS, two or more points from all ALSFRS-R items, and 80% or more % FVC", "value": 6.4, "unit": "points"}, {"measurement": "Before-and-after difference in ALSFRS-R score", "setting": "(7) Definite ALS, two or more points from all ALSFRS-R items, and 80% or more % FVC, before first course vs end of sixth course", "value": "−4.6", "unit": "points"}, {"measurement": "Between-group difference in ALSFRS-R score change (actual drug vs placebo)", "setting": "all patients (not specified)", "value": 0.7, "unit": "points"}, {"measurement": "Before-and-after difference in ALSFRS-R score", "setting": "all patients (not specified), before first-course administration vs end of sixth-course drug holiday, 60 mg i.v. drops over 60 min once a day", "value": "−5.3", "unit": "points"}, {"measurement": "Comparison with the placebo administration group (ALSFRS-R difference)", "setting": "patient groups (5) to (7)", "value": "significant difference"}, {"measurement": "Reduction of the risk of death or tracheostomy", "setting": "specific patients (1) to (7), extrapolated from 7% risk per 1 point ALSFRS-R (Neurology 2005; 64: 38-43)", "value": "≥ 3.5", "unit": "%"}]}
